Series [1] has as its target T1, rat Oatp1b2 (Rattus norvegicus, UniProt Q9QZX8).
T1 sequence (Q9QZX8 1-687): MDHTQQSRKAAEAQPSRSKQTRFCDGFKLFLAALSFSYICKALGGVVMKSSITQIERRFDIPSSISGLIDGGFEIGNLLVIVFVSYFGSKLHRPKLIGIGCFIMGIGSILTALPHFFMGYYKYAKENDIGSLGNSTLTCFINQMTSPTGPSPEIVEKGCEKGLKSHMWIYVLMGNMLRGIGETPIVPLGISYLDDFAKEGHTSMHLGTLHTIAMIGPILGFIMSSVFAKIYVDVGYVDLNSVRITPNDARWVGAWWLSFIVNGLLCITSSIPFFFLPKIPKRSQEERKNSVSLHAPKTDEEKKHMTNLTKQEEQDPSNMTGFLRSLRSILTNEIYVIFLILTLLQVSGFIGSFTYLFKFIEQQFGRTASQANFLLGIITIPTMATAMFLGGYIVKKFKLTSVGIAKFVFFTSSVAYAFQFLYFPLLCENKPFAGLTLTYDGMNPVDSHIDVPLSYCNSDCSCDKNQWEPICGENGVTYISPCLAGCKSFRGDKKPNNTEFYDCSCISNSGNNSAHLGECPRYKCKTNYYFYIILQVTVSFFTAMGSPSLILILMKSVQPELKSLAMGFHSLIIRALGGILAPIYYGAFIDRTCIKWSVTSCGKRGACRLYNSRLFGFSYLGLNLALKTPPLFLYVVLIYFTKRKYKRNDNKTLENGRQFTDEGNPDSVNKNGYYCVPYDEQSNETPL
Put plainly: Uptake assay for radiolabeled substrates, rat Oatp1b2 expressing 293FT cells. The settings on record: 10‐min incubation. As to the method: (§1) 293FT cells were purchased from Thermo Fisher Scientific, Inc.. The cells were grown in Dulbecco's modified Eagle medium (supplemented with 4.5 g/L glucose and 2 mM L‐glutamine) at 37°C, 5% CO2, and 95% humidity. The cells were passaged 3 times per week by harvesting cells using trypsin and plating at a density of 1.0 × 10^4 cells/cm^2 in a 10 cm cell culture plate for maintenance culture. The 293FT cells were detached using trypsin and re‐seeded at a density of 2.5 × 10^4 cells/cm^2 in BioCoat™ Collagen I 6‐well plates (Corning Inc.) for transfection and then treated with 1.2 μg of plasmid vector and 3.2 μl of Lipofectamine™ 2000 Transfection Reagent (Thermo Fisher Scientific, Inc.) according to the manufacturer's instructions. After a 3‐h treatment, the transfection medium was replaced with a fresh cell culture medium and incubated at 37°C with 95% humidity and 5% CO2 until ready for the assay.
(§2) Transport experiments were conducted approximately 24 h post‐transfection. The experiments were initiated by aspirating culture medium and addition of pre‐warmed radiolabeled substrate solution (final 1.0% of acetonitrile or 0.9% of ethanol in phosphate‐buffered saline (PBS[−])) to each well. After a 10‐min incubation, cells were washed twice with 1 ml of ice‐cold PBS(−) and lysed with 700 μl of 1.0 M NaOH for 3 h or more at room temperature. The lysate was transferred to a 1.5‐ml tube, and neutralized with 350 μl of 2.0 M HCl and 350 μl of 2.0% sodium dodecyl sulfate (SDS) solution. From the lysate, 1.0 ml was transferred to a vial containing 10 ml of Emulsifier Scintillator Plus to measure the radioactivity in the LSC. The protein concentration of the cell lysate was also measured using a Pierce™ BCA Protein Assay Kit (Thermo Fisher Scientific, Inc.), which was used to normalize, according to the cell number, the radioactivity in the cell lysate extract. The protein assay was performed in duplicate. Each sample type was assayed in triplicate wells, and each run was performed twice. When the difference in mean uptake between OATP expressing cells and mock cells was more than 2 times, the OATP was judged to be involved in transportation of the substrate. […] Each sample type was assayed in triplicate wells.

Series [2] deals with T2, mouse Oatp1a1 (Mus musculus, UniProt Q9QXZ6).
T2 sequence (Q9QXZ6 1-670): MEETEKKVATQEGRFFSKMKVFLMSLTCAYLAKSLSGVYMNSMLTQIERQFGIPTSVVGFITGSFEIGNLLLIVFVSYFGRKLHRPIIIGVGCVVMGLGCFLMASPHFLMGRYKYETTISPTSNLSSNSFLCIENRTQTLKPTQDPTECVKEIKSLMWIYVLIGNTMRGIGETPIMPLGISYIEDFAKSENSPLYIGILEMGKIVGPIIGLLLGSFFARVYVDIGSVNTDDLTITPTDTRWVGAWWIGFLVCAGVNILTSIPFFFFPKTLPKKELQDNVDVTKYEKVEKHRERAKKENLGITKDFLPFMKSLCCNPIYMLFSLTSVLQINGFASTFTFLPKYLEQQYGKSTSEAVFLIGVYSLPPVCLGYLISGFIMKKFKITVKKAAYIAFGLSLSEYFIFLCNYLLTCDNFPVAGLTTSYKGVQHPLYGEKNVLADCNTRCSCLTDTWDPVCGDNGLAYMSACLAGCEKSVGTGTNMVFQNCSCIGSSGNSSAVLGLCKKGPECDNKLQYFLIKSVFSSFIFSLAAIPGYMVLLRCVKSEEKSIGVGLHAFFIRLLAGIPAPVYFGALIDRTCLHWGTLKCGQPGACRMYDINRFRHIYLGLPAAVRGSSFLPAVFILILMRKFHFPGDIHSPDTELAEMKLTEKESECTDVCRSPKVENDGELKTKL
Put plainly: Uptake assay for radiolabeled substrates, mouse Oatp1a1 expressing 293FT cells. Further details: expressed in transfected cells; host or cells: 293FT cells. The settings on record: for Ratio of uptake amount relative to the uptake into mock cells: 10‐min incubation. It counts as in vitro ADME. As to the method: as §1, §2

Take `C[C@]12CC[C@@H]3c4ccc(OS(=O)(=O)O)cc4CC[C@H]3[C@@H]1CCC2=O` [E3S, Estrone 3‐sulfate]: the “Ratio of uptake amount relative to the uptake into mock cells” value in series [1] (Run_1) was determined as 10.0; in series [1] (Run_2), 4.7; in series [2] (Run_1), 23.4; in series [2] (Run_2), 34.4.

Consider `C[C@]12CC[C@@H]3c4ccc(O)cc4CC[C@H]3[C@@H]1CC[C@@H]2O[C@@H]1O[C@H](C(=O)O)[C@@H](O)[C@H](O)[C@H]1O` [E217βG, Estradiol 17β‐D‐glucuronide], for which the “Ratio of uptake amount relative to the uptake into mock cells” value in series [1] (Run_1) is given as 27.4; in series [1] (Run_2), 43.2; in series [2] (Run_1), 84.9; in series [2] (Run_2) it was 62.2. Moreover, the “Uptake, times higher than in mock cells” value in series [2] was more than 50 times.

As to `Cn1c(C(F)(F)F)cc(=O)n(-c2cc(Oc3cccnc3OCC(=O)O)c(Cl)cc2F)c1=O` [S‐3100‐CA], the “Ratio of uptake amount relative to the uptake into mock cells” value in series [1] (Run_1) is listed as 6.6; in series [1] (Run_2) it was 8.4; in series [2] (Run_1), 3.3; in series [2] (Run_2), 4.3.

(Values after article PMC8496750, “Identification of the organic anion transporting polypeptides responsible for the hepatic uptake of the major metabolite of epyrifenacil, S‐3100‐CA, in mice” (Pharmacology Research & Perspectives, 2021).)
